Literature values in patent US9878046B2, “Adverse side-effects associated with administration of an anti-hyaluronan agent and methods for ameliorating or preventing the side-effects” (Halozyme, Inc., priority 2010, dated 2018).

How the values were obtained:
[1] = test system: B16 melanoma model; settings: oral administration at 600 mg/kg/d; cited from earlier work
[2] = glucocorticoid, route IV or PO as listed; cited from earlier work

Row | Structure (SMILES) | reduction of metastases [1] [%] | Equivalent Potency [2] [mg]
1 | Cc1cc(=O)oc2cc(O)ccc12 [4-MU, 4-Methylumbelliferone] | 64 | 
2 | C[C@H]1C[C@@H]2[C@H]([C@@H](O)C[C@@]3(C)[C@H]2CC[C@]3(O)C(=O)COC(=O)CCC(=O)O)[C@@]2(C)C=CC(=O)C=C12 [Methylprednisolone sodium succinate] |  | 4
3 | C[C@]12C=CC(=O)C=C1CC[C@@H]1[C@@H]2[C@@H](O)C[C@@]2(C)[C@H]1CC[C@]2(O)C(=O)CO [Prednisolone] |  | 5
4 | C[C@]12CCC(=O)C=C1CC[C@@H]1[C@@H]2[C@@H](O)C[C@@]2(C)[C@H]1CC[C@]2(O)C(=O)CO [Hydrocortisone] |  | 20
